# Measured values reported in patent US7563445B2, “CD40 binding molecules and CTL peptides for treating tumors” (priority 1998, dated 2009).
# Tests used:
# [1] = tested on: E1A-specific CTL clone; test: Spleen cells of peptide-injected mice as stimulator cells for an E1A-specific CTL clone ([3H]-thymidine incorporation); assay type: cell-based, C57BL/6 mice; conditions: splenocytes isolated 16 h after s.c. injection of 100 μg peptide in IFA
# Description: Spleen cells derived from untreated C57BL/6 mice (−), or from mice injected s.c. 16 h earlier with 100 μg of E1A- or HPV16 E7-peptide in IFA were used as stimulator cells for an E1A-specific CTL clone. [^3H]-thymidine incorporation (cpm) +/−S. E. M. is shown for different effector to stimulator concentrations,. without subtraction of background counts. Results are representative of 5 independent experiments.
# Spleen cells from these mice were isolated 16h later and used as stimulator cells for an E1A-specific CTL clone in vitro.
# [2] = tested on: HPV16 transformed syngeneic cells (TC-1); conditions: preventive vaccination with peptide, prior knowledge; cited from earlier work
# [3] = tested on: HPV16 transformed syngeneic cells (TC-1); test: Therapy of HPV16 E6/E7 transformed tumor cells (TC-1) by peptide plus in vivo CD40 triggering; parameters: species or system C57BL/6 mice; conditions: treated 6 days after s.c. injection of 25.000 TC-1 cells; 100 μg peptide i.p. in IFA; n=10
# Description: Mice were injected s.c with 25.000 HPV16 transformed syngeneic cells (TC-1). C57BL/6 mice were left untreated (-◯-) or after 6 days received 100 μg HPV16 E7-peptide i.p. in IFA (-□-), 100 μg HPV16 E7-peptide i.p. in IFA in combination with the anti-CD40 mAb FGK-45 (-▪-) or a control peptide i.p. in IFA in combination with the anti-CD40 mAb FGK-45 (-●-). The percentage of tumor bearing mice is depicted for different treatment groups (n=10) in (a). The differences between the group treated with the HPV16-peptide plus the anti-CD40 mAb and the other three groups were statistically significant (p<0.01) (Log-Rank test). In (b) the percentage of surviving animals is shown (E7-peptide-treated group vs E7-peptide plus anti-CD40-treated group: p=0.002, Log-Rank test).
# It was examined whether CD40-triggering in vivo is beneficial to the outcome of vaccination with an HPV16 E7-derived peptide.
# [4] = tested on: E1A-specific CTL; test: E1A-peptide in IFA with in vivo CD40-triggering: E1A-specific CTL cytotoxicity and Db/E1A tetramer staining; parameters: species or system C57BL/6 mice; conditions: spleen of vaccinated mice
# From the text: Since CD4^+ T cell-mediated helper activity has been implicated in the prevention of peripheral CTL tolerance induction, the inventors addressed the question whether CD40-triggering in vivo is sufficient to prevent peripheral E1A-specific CTL tolerization.
# [5] = molecular target: T1, CD40 (Mus musculus, UniProt P27512); test: Cross-priming of E1B-specific CTLs in mice immunized with Ad5E1-BALB/c MECs, CD40 activation replacing CD4+ T help; assay type: in vivo; conditions: CD4-depleted mice after immunization; LPS 50 μg intravenous; IL-2 1×10^5 units in IFA subcutaneous (not shown)
# T1 construct: endogenous in cells
# From the text: (§1) Each line represents one mouse.
# as §1
# T1 sequence (P27512 20-289): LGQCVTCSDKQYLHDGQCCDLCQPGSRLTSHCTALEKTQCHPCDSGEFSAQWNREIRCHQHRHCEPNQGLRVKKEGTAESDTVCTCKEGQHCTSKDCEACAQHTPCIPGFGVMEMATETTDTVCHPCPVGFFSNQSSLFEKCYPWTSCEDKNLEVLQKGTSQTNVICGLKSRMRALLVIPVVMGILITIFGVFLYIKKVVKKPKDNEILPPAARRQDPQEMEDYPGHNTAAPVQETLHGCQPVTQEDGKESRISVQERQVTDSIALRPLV
Substance,Proliferation of E1A-specific CTL clone on splenocytes [1],Immunity against a challenge with HPV16-transformed tumor cells [2],Tumor growth / outgrowth [3],Percentage of CD8+ cells that stained with the Db/E1A tetramers [4],E1B-specific CTL activity / CTL priming [5]
RAHYNIVTF (Human Papilloma Virus Type 16 E7 derived peptide) [E7-peptide],failed to do so,induces protective CTL-mediated immunity,"able to slow down tumor growth, but eventually most animals succumb to the tumor",–,–
SGPSNTPPEI (Human Adenovirus E1A derived peptide) [E1A-peptide],induced specific proliferation,–,–,approximately 3%,–
bacterial lipopolysaccharide [LPS],–,–,–,–,neither LPS or IL-2 treatment resulted in detectable CTL priming
